The values that follow come from US12274781B2, “Use of enzyme-modified isoquercitrin” (SAN-EI GEN F.F.I., INC., priority 2015, dated 2025).

Test [1] concerns saliva secretion in healthy persons. The test can be described thus: Salivation-promoting effect of aqueous solutions, non-thickened or thickened with xanthan gum (Experimental Examples 1 and 2). It counts as in vivo, human. Particulars: for Amount of salivation (standardized with water): average of 3 panelists, water = 1; for Salivation-promoting (saliva secretion-increasing) effect, in words: Experimental Example 1, aqueous solutions, equimolar in terms of rutin, humans; for Enhancement of the salivation-promoting effect by incorporating a thickening polysaccharide (thickening), in words: Experimental Example 2, 150 μM, 0.1 mass % xanthan gum. As for the experimental part: Using 3 healthy persons (males, average age: 31.3 years old) as panelists, the salivation-promoting effect of the test samples prepared above was evaluated. Persons whose circadian variation of saliva secretion is relatively similar were selected as the panelists from candidates.
The evaluation was performed using 15 g of each test sample per test according to the following method. As a blank, a test was performed in the same manner using 15 g of water in place of the test samples.
(i) After 15 g of each sample is placed in the mouth and retained for 5 seconds, the sample is swallowed at one time.
(ii) After 5 seconds, absorbent cotton (37.5 mm×37.5 mm×4 mm) is placed under (the back of) the tongue, and retained for 2 minutes.
(iii) The absorbent cotton is removed from under the tongue, and the weight (g) of the cotton is measured. This weight is compared with the weight of the absorbent cotton before being placed in the mouth to calculate the difference in weight.
The above test was performed using the same test sample twice per panelist, and the average was calculated. Based on the average of each panelist, the average and standard deviation of all of the panelists were calculated.
Table 2 and FIG. 1 show the evaluation results (the average of 3 panelists). The results are shown as numerical values (relative values) standardized by setting the saliva secretion amount obtained by using the blank (water) as 1.
Test substances (enzymatically modified isoquercitrin preparation, αG rutin, and quercetin) were dissolved in drinking water, and adjusted so that the rutin content (molarity) of the structure of each compound was 150 μM (see Table 1). Further, xanthan gum was added to the aqueous solutions, so that the content thereof was 0.1 mass %, thus thickening the solutions. For comparison, xanthan gum-free aqueous solutions (an aqueous enzymatically modified isoquercitrin solution, an aqueous αG rutin solution, an aqueous quercetin solution) at a concentration of 150 μM in terms of rutin were prepared in the same manner as in Experimental Example 1.
The salivation-promoting effect of each test sample prepared above was evaluated in the same manner as in Experimental Example 1 (the panelists were also the same). Table 3 and FIG. 2 show the evaluation results (the average of 3 panelists).

For a further test, the system named is saliva secretion in mice. Particulars: cited from earlier work.
Setting [2] is: 75 μM aqueous solution (in terms of rutin or molarity of quercetin), 15 g.
Setting [3] is: 150 μM aqueous solution (in terms of rutin or molarity of quercetin), 15 g.
The mark [4] stands for this setting: 750 μM aqueous solution (in terms of rutin or molarity of quercetin), 15 g.
[5] abbreviates: 3750 μM aqueous solution (in terms of rutin or molarity of quercetin), 15 g.
[6] abbreviates: Non-thickened: 150 μM, xanthan gum-free, viscosity 1 mPa·s.
Setting [7] is: Thickened: 150 μM with 0.1 mass % xanthan gum, viscosity 20 mPa·s.

“Also recorded” adds a separate entry of the source.

With `O=c1c(O)c(-c2ccc(O)c(O)c2)oc2cc(O)cc(O)c12` [quercetin], the “Amount of salivation (standardized with water)” value in test [1] (setting [2]) is listed as 0.989; in test [1] (setting [3]), 0.826; in test [1] (setting [4]), 1.032; in test [1] (setting [5]), 1.132; in test [1] (setting [6]) it was 0.826; in test [1] (setting [7]), 0.868. In test [1], the “Salivation-promoting (saliva secretion-increasing) effect, in words” value is on record as “not observed; also recorded: no salivation-promoting effect”. In addition, the “Enhancement of the salivation-promoting effect by incorporating a thickening polysaccharide (thickening), in words” value in test [1] is “not observed”. Besides, the Effect on hyposalivation entry in the test with saliva secretion in mice (model mice having disturbance of salivary secretion created by radiation exposure) is on record as “reduces hyposalivation”. Moreover, in the test with saliva secretion in mice (normal mice), the “Effect on saliva secretion” value is on record as “enhances saliva secretion”.
α-glucosylrutin [αG rutin]: the “Amount of salivation (standardized with water)” value turned out to be 0.910 in test [1] (setting [2]); 0.841 in test [1] (setting [3]); 0.872 in test [1] (setting [4]); 0.932 in test [1] (setting [5]); 0.841 in test [1] (setting [6]); 0.719 in test [1] (setting [7]). For the same compound, the “Salivation-promoting (saliva secretion-increasing) effect, in words” value in test [1] is “not observed”; in test [1] (listed as α-glucosylrutin), “no salivation-promoting effect”. For the same compound, the “Enhancement of the salivation-promoting effect by incorporating a thickening polysaccharide (thickening), in words” value in test [1] is given as “not observed”.
